Measured values reported in PMC11740094, “Design and synthesis of cyclic lipidated peptides derived from the C-terminus of Cx43 for hemichannel inhibition and cardiac endothelium targeting” (RSC Medicinal Chemistry, 2024).
Read-outs that look alike come from different tables or passages of the source. Residues, ends and D or L forms follow the SMILES beside them. *: point of attachment. Palmitoyl = CCCCCCCCCCCCCCCC(=O)*

Tests used:
[1] = molecular target: T1, Cx43 HCs (B16-BL6 cells endogenously expressing Cx43) (Mus musculus, UniProt P23242); test: ATP release assay in B16-BL6 cells, hemichannels opened by calcium depletion; format: cell-based, murine
T1 construct: a murine melanoma cell line endogenously expressing Cx43; endogenous in cells; host or cells: B16-BL6 mouse melanoma cells
Method: The inhibitory capacity of the peptides on connexin HC activity was determined in vitro by measuring ATP release triggered by a depletion of extracellular Ca^2+, hereafter called “calcium-free” condition.[60] The assays were performed on B16-BL6 cells, a murine melanoma cell line endogenously expressing Cx43.[61] To measure ATP release, B16-BL6 cells were rinsed with a physiological Hanks' balanced salt solution (HBSS; control) followed by incubation for 5 minutes in HBSS containing the peptides. After rinsing with calcium-free HBSS (Ca-free), the cells were incubated with Ca-free containing the peptides for 30 minutes. Positive and negative control conditions included 30 minute incubation with HBSS, Ca-free without peptides or Ca-free containing 25 μM of the non-selective small-molecule inhibitor Cbx. ATP release in the supernatant was measured by bioluminescence. In order to determine the optimal concentration of peptides to be used in the assays, an initial round of testing was conducted on the control peptides αCT1, Gap27,[62]Gap19 (ref. [15]) and TAT-Gap19 (ref. [15]) as well as Cbx.[63] A doubling of ATP release was observed 30 minutes after the switch to the calcium-free solution, indicating effective Cx43 HC channel opening under these conditions (Fig. 5a and Table S1 ^†). As expected, the nonspecific connexin HC inhibitor Cbx (25 μM) reduced calcium-free-induced ATP release to nearly control conditions. At a high concentration (100 μM), Gap19, Gap27 and αCT1 had minimal to no effect on ATP release while TAT-Gap19 had the opposite effect inducing the release of ATP to a similar extent as the detergent Triton X-100 (1%). This might be due to the presence of the CPP motif, causing some disturbance at the level of the cellular membrane, and correlated with the previous findings on the use of the peptide at high concentrations.[64,65] […]
ATP release assays were performed using previously described methods.[60] […] ATP release under each condition was expressed as the percentage of calcium-free-induced ATP release. […]

[2] = molecular target: T2, Cx43 HCs (HeLa–Cx43 cells) (Homo sapiens, UniProt P17302); test: ATP release assay in HeLa–Cx43 transfectants (selectivity); format: cell-based; conditions: for ATP release, mean (Table S4, Fig. 8b), HeLa-Cx43: calcium-free conditions, N = 3
T2 construct: expressed in transfected cells
Source text: (§1) Two cell types were chosen to assess the specificity of the Cx43 analogues. HeLa cells derived from human cervical cancer are the oldest and most commonly used immortalized cells. These cells are so-called communication-incompetent, i.e. known to not endogenously express connexins,[71] while SK-HEP-1 cells, a human liver sinusoid endothelial cell line, are devoid of Cx43 but express a small amount of Cx45.[72] Together with these parental cells, HeLa cells and SK-HEP-1 cells stably transfected with Cx43 were used (HeLa–Cx43 (ref. [73]) and SK-HEP-1–Cx43,[72] respectively). The presence and absence of Cx43 in the different cell lines were confirmed by Western blotting (Fig. 8a). The specificity of the control peptides Gap27, TAT-Gap19, αCT1 as well as the cyclic analogue 11 for Cx43 HCs was assessed through ATP release measurements in these pairs of cells, and is shown in Fig. 8b (and Table S4 ^†) for parental and HeLa–Cx43 cells and in Fig. 8c (and Table S5 ^†) for parental and SK-HEP-1–Cx43 cells. No induction of ATP release was observed when parental HeLa cells were exposed to calcium-free conditions. […] However, a doubling of ATP release was observed when parental SK-HEP-1 cells were exposed to calcium-free conditions, which was attenuated by the treatment with Cbx and all peptides, indicating an effect of the compounds on Cx45 HC. […] Nonetheless, the cardioprotective properties of αCT1 are generally ascribed to its interaction with the Cx43 protein,[23] thus it is reasonable to assume that these properties will be retained by the proteolytically stable 10 peptide.
(§2) ATP release assays were performed using previously described methods.[60] Briefly, B16-BL6 cells, HeLa cells or SK-HEP-1 cells were seeded into 96-well plates and grown until they reached confluence. […] The cells were then washed with calcium-free HBSS and incubated with aforementioned compounds in calcium-free HBSS for 30 minutes. Supernatants were collected and ATP bioluminescence measurements were performed using an ATP bioluminescence kit (Sigma-Aldrich) according to the manufacturer's instructions. ATP release under each condition was expressed as the percentage of calcium-free-induced ATP release. ATP release of cells incubated with HBSS was used as a control for basal ATP release. Triplicates were performed for each independent experiment.

[3] = molecular target: T3, Cx45 HC (parental SK-HEP-1 cells, devoid of Cx43) (Homo sapiens, UniProt P36383); test: ATP release assay in parental SK-HEP-1 cells (selectivity); format: cell-based; conditions: calcium-free conditions, N = 3
T3 construct: are devoid of Cx43 but express a small amount of Cx45; endogenous in cells; host or cells: parental SK-HEP-1 cells
Source text: as §1, §2

[4] = tested on: Cx43 HCs (SK-HEP-1–Cx43 cells); test: ATP release assay in SK-HEP-1–Cx43 transfectants (selectivity); format: cell-based, human; conditions: calcium-free conditions, N = 3
Source text: as §1, §2

[5] = tested on: parental HeLa cells (no endogenous connexins); test: ATP release assay in parental HeLa cells (selectivity); format: cell-based, human; conditions: calcium-free conditions, N = 3
Source text: as §1, §2

Cx43 HC = conditions: cited from earlier work
Method: The inhibitory capacity of the peptides on connexin HC activity was determined in vitro by measuring ATP release triggered by a depletion of extracellular Ca^2+, hereafter called “calcium-free” condition.[60] The assays were performed on B16-BL6 cells, a murine melanoma cell line endogenously expressing Cx43.[61] To measure ATP release, B16-BL6 cells were rinsed with a physiological Hanks' balanced salt solution (HBSS; control) followed by incubation for 5 minutes in HBSS containing the peptides. After rinsing with calcium-free HBSS (Ca-free), the cells were incubated with Ca-free containing t ...

physchem = format: physicochemical; conditions: water
cardiac endothelium = conditions: binding to markers on the cell surface of the cardiac endothelium; cited from earlier work
Source text: To further increase the therapeutic potential of a drug candidate, targeted delivery to the organ or tissue of interest after systemic treatment is highly desirable. The use of homing peptides, i.e. peptides that selectively bind to markers expressed on the surface of different cell types, can increase the specificity and efficacy of drug delivery, while reducing the side effects linked to off-target interactions. A wide variety of peptides homing to different tissues and pathological conditions has been identified, mostly through phage-display techniques, and used as delivery vehicles for dru ...

[6] = design: method as in PMID 34063001; conditions: mouse serum; cited from earlier work
[7] = peptide applied extracellularly, read-out: IC50 on Cx43-mediated ATP release

T1 sequence (P23242 whole entry): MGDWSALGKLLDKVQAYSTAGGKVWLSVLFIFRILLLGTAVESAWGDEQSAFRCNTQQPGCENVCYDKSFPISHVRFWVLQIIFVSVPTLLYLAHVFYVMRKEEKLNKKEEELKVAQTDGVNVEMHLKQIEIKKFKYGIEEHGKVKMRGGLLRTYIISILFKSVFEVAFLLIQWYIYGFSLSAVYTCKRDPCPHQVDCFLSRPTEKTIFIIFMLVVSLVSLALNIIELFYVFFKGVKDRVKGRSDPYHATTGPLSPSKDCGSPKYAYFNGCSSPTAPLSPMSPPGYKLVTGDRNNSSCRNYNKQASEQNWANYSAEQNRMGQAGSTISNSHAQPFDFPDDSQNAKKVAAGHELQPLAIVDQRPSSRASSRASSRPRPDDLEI
T3 sequence (P36383 whole entry): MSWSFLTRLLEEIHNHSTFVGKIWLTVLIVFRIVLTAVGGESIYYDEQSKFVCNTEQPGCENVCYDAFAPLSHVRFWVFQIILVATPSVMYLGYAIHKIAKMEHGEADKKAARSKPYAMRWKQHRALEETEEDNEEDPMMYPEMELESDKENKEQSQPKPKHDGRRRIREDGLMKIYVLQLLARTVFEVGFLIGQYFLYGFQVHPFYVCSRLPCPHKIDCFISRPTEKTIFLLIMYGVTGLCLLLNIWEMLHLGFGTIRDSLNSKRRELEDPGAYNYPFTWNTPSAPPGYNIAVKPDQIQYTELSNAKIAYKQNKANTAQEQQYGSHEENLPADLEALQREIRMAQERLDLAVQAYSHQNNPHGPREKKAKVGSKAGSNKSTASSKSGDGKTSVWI
T2 sequence (P17302 whole entry): as the sequence (P23242 whole entry) above, with E124D, V164I, R243K, T251S, P253A, S257A, P263Q, S341N, A344S, V347L counted along it

| Compound | reduction of calcium-free-induced ATP release in HeLa–Cx43 cells ([2]; peptide 5 μM) | ATP release, mean (Table S4, Fig. 8b), HeLa-Cx43 ([2]; peptide 5 μM) [nM] | ATP release, mean (Table S5, Fig. 8c), Parental SK-HEP-1 ([3]; peptide 5 μM) [nM] | ATP release, mean (Table S5, Fig. 8c), SK-HEP-1-Cx43 ([4]; peptide 5 μM) [nM] | ATP release, mean (Table S4, Fig. 8b), Parental HeLa ([5]; peptide 5 μM) [nM] | further results |
| --- | --- | --- | --- | --- | --- | --- |
| CC1(C)[C@@H](OC(=O)CCC(=O)O)CC[C@]2(C)[C@H]3C(=O)C=C4[C@@H]5C[C@@](C)(C(=O)O)CC[C@]5(C)CC[C@@]4(C)[C@]3(C)CC[C@@H]12 [Cbx, carbenoxolone] | – | – | – | – | – | ATP release, mean normalized to calcium-free condition (Table S2, Fig. 5b) ([1]; Cbx 25 μM, calcium-free 30 min, N = 3–9): 60.4766%; ATP release, mean normalized to calcium-free condition (Table S3, Fig. 6b) ([1]; Cbx 25 μM, calcium-free 30 min, N = 5–10): 78.1965%; inhibition of calcium-free-induced ATP release in HeLa–Cx43 cells (in words) ([2]; Cbx 25 μM): completely inhibited; ATP release, mean (Table S4, Fig. 8b), HeLa-Cx43 ([2]; Cbx 25 μM): 2.1867 nM; ATP release, mean (Table S5, Fig. 8c), Parental SK-HEP-1 ([3]; Cbx 25 μM): 13.9931 nM; ATP release, mean (Table S5, Fig. 8c), SK-HEP-1-Cx43 ([4]; Cbx 25 μM): 26.4826 nM; ATP release, mean (Table S4, Fig. 8b), Parental HeLa ([5]; Cbx 25 μM): 0.9207 nM |
| CC[C@H](C)[C@H](NC(=O)[C@H](CCC(=O)O)NC(=O)[C@@H](NC(=O)[C@H](CCC(N)=O)NC(=O)[C@@H](N)CCCCN)[C@@H](C)CC)C(=O)N[C@@H](CCCCN)C(=O)N[C@@H](CCCCN)C(=O)N[C@@H](Cc1ccccc1)C(=O)N[C@@H](CCCCN)C(=O)O [Gap19, H-KQIEIKKFK-OH] (H-KQIEIKKFK-OH) | – | – | – | – | – | IC50 (Cx43 HC; intracellular application via whole-cell recording pipette, read-out: IC50 when applied intracellularly via a whole-cell recording pipette): 7 µM; IC50 (Cx43 HC; [7]): ~50 µM |
| CC[C@H](C)[C@H](NC(=O)[C@@H](NC(=O)[C@H](Cc1ccccc1)NC(=O)[C@@H](NC(=O)[C@@H](NC(=O)[C@H](CCCCN)NC(=O)[C@H](CCC(=O)O)NC(=O)[C@@H](NC(=O)[C@@H]1CCCN1C(=O)[C@H](CCCNC(=N)N)NC(=O)[C@@H](N)CO)[C@@H](C)O)[C@@H](C)O)[C@@H](C)CC)[C@@H](C)CC)C(=O)O [Gap27] (H-SRPTEKTIFII-OH) | 40–45% | 9.3690 | 8.5784 | 36.9304 | 0.9529 | – |
| CCCCCCCCCCCCCCCC(=O)N[C@@H](CCCCN)C(=O)N[C@@H](CCC(N)=O)C(=O)N[C@H](C(=O)N[C@@H](CCC(=O)O)C(=O)N[C@H](C(=O)N[C@@H](CCCCN)C(=O)N[C@@H](CCCCN)C(=O)N[C@@H](Cc1ccccc1)C(=O)N[C@@H](CCCCN)C(=O)O)[C@@H](C)CC)[C@@H](C)CC [Palm-Gap19] (Palmitoyl-KQIEIKKFK-OH) | – | – | – | – | – | solubility (physchem): ≥ 100 µM |
| CC[C@H](C)[C@H](NC(=O)[C@H](CCC(=O)O)NC(=O)[C@@H](NC(=O)[C@H](CCC(N)=O)NC(=O)[C@H](CCCCN)NC(=O)[C@H](CCCNC(=N)N)NC(=O)[C@H](CCCNC(=N)N)NC(=O)[C@H](CCCNC(=N)N)NC(=O)[C@H](CCC(N)=O)NC(=O)[C@H](CCCNC(=N)N)NC(=O)[C@H](CCCNC(=N)N)NC(=O)[C@H](CCCCN)NC(=O)[C@H](CCCCN)NC(=O)[C@H](CCCNC(=N)N)NC(=O)CNC(=O)[C@@H](N)Cc1ccc(O)cc1)[C@@H](C)CC)C(=O)N[C@@H](CCCCN)C(=O)N[C@@H](CCCCN)C(=O)N[C@@H](Cc1ccccc1)C(=O)N[C@@H](CCCCN)C(=O)O [TAT-Gap19] (H-YGRKKRRQRRRKQIEIKKFK-OH) | 40–45% | 10.9629 | 15.3639 | 55.5511 | 1.3701 | IC50 (Cx43 HC; [7]): 7 µM |
| CC(=O)N[C@@H](CO)C(=O)N[C@@H](CCCNC(=N)N)C(=O)N1CCC[C@H]1C(=O)N[C@@H](CCCNC(=N)N)C(=O)N1C[C@@H]2C[C@H]1C(=O)N[C@@H](CC(=O)O)C(=O)N[C@@H](CC(=O)O)C(=O)N[C@@H](CC(C)C)C(=O)N[C@@H](CCC(=O)O)C(=O)N[C@H](C(N)=O)Cc1cn2nn1 [compound 11] | 40–45% | 8.7419 | 7.9522 | 38.4712 | 1.5371 | – |
| CRPPR [cardiac endothelium-homing pentapeptide] | – | – | – | – | – | selectivity of targeting the heart (cardiac endothelium): > 300 fold |
| H-RPRPDDLEI-OH [αCT11] | – | – | – | – | – | time in which the peptide was found to be degraded [6]: 30 min |
| H-RQPKIWFPNRRKPWKKRPRPDDLEI-OH [αCT1] | 40–45% | 9.6282 | 6.6804 | 39.5655 | 1.6218 | – |
| Triton X-100 | – | – | – | – | – | ATP release, mean normalized to calcium-free condition (Table S1, Fig. 5a) ([1]; Triton X-100 1%, cell lysis control, N = 3–9): 248.6069% |
